The values that follow come from patent US20170112773A1, “PLASMA MEMBRANE VESICLES COMPRISING FUNCTIONAL TRANSMEMBRANE PROTEINS” (Board of Regents, the University of Texas System, priority 2015, published 2017).

The nature of data set [1]: in vitro. The following applies: human, MCF-7 cells.
Method: To test Connectosomes in a second model cell line, the assay was repeated using recipient MCF-7 cells. […] First, a control study was conducted in which the viability of a confluent monolayer of MCF-7 cells was measured 48 hours after free doxorubicin was added directly to the cell media at increasing concentrations from 10 nM to 100 μM (FIG. 4J). Next, independent cell samples were exposed to increasing concentrations of Connectosomes, which were equivalent in terms of total doxorubicin content to free doxorubicin concentrations of 180 nM, 900 nM, and 4.5 μM.
Another data set relates to HeLa cells. To be noted: 24 hours of exposure, literature; cited from earlier work.
A short description of data set [2]: in vitro. The following applies: human, HeLa cells.
Method: Recipient HeLa cells were plated in a 12 well plate at a density of 25,000 cells per well and a total media volume of 2 mL media per well. Seven hours before addition of the GPMVs, recipient cells received fresh media. Just before addition of the GPMVs, the recipient cells were rinsed once with 2 mL PBS and then incubated in 500 μL fresh PBS. Concentrated GPMVs were resuspended in fresh calcium-free GPMV buffer and counted using a hemocytometer. GPMVs were added to recipient cells at a ratio of approximately 1 GPMV per 2 recipient cells and incubated in the dark at 37° C. with 5% CO2 for 2 hours. After incubation, the recipient cells were rinsed with 2 mL media and then incubated in 2 mL fresh media at 37° C. with 5% CO2. After 24 hours, cell viability was analyzed using a trypan blue or 7-AAD permeability assay.
For the trypan blue assay, the cells were trypsinized with 500 μL trypsin for 5 minutes at 37° C., 5% CO2. […] At least 90 cells were counted for each trial using a hemocytometer. […]
The relationship between the concentration of doxorubicin added via solution and cell viability was determined by incubating recipient HeLa cells in the specified doxorubicin concentration diluted in media from a 10 mM stock in DMSO for 24 hours. Cell viability was measured using both viability assays as described above.
The nature of data set [3]: in vitro. To be noted: human, HeLa cells. This is another data set of the same source.
Method: Recipient HeLa cells were plated in a 12 well plate at a density of 25,000 cells per well and a total media volume of 2 mL media per well. Seven hours before addition of the GPMVs, recipient cells received fresh media. Just before addition of the GPMVs, the recipient cells were rinsed once with 2 mL PBS and then incubated in 500 μL fresh PBS. Concentrated GPMVs were resuspended in fresh calcium-free GPMV buffer and counted using a hemocytometer. GPMVs were added to recipient cells at a ratio of approximately 1 GPMV per 2 recipient cells and incubated in the dark at 37° C. with 5% CO2 for 2 hours. […] After 24 hours, cell viability was analyzed using a trypan blue or 7-AAD permeability assay.
For the 7-AAD assay, the cells were trypsinized with 500 μL trypsin for 5 minutes at 37° C., 5% CO2. […] Five μL of 7-AAD was added to 45 μL of the resuspended cells, and analyzed using flow cytometry within three minutes of 7-AAD addition. At least 5,000 cells were analyzed for each trial. […] To determine the percentage of non-viable cells in each sample, a threshold was drawn on the flow cytometry fluorescence histograms at the minimum point between the population of cells excluding the dye and the population of cells including the dye. The percentage of cells with fluorescence above these thresholds were considered non-viable. […]
In the next data set the test system is recipient HeLa cells. Description: Dye delivery study: CRO dye delivery to recipient cells, flow cytometry. It is filed as cell-based. The following applies: 300 μM carbenoxolone. As to the method: The media for the blocked condition was supplemented with 300 μM carbenoxolone, prepared from a 100 mM stock in water. […] Recipient cells for the blocked condition were incubated in PBS supplemented with 300 μM carbenoxolone. Calcein red-orange-loaded vesicles were formed using calcium-free GPMV buffer. […] This ratio was estimated based on hemocytometer counts of the number of vesicles and of the number of recipient cells in a 12 well dish. […] At least 7,500 cells were analyzed for each trial.

The next data set deals with CEM-SS lymphocytes. The following applies: peptide concentration 0.1-1 mM, CEM-SS lymphocytes in culture; cited from earlier work.

Compound `COc1cccc2c1C(=O)c1c(O)c3c(c(O)c1C2=O)C[C@@](O)(C(=O)CO)C[C@@H]3O[C@H]1C[C@H](N)[C@H](O)[C@H](C)O1` [free doxorubicin, doxorubicin] yielded a cytotoxicity at 48 h, 100 µM in the data set “in vitro [1]” of 44%. Further, in the data set with HeLa cells, the “Cytotoxic dose of doxorubicin” value is listed as “approximately 10 μM”. Moreover, in “in vitro [2]”, the cytotoxicity at 24 h, 10 µM amounted to 44% and the cytotoxicity at 24 h, 100 µM came out at 87%. In the data set “in vitro [3]”, this compound displayed a cytotoxicity at 24 h, 10 µM of 45%.

On to `CC1(C)[C@@H](OC(=O)CCC(=O)O)CC[C@]2(C)[C@H]3C(=O)C=C4[C@@H]5C[C@@](C)(C(=O)O)CC[C@]5(C)CC[C@@]4(C)[C@]3(C)CC[C@@H]12` [carbenoxolone], for which the “Effect of gap junction inhibitor on CRO dye delivery by Connectosomes” value with recipient HeLa cells is “significantly decreased the average recipient cell fluorescence”.

As to “SEQ ID NO:1: fusogenic peptide from influenza virus hemagglutinin HA-2”, in the data set on CEM-SS lymphocytes, the “Increase of anti-HIV potency of antisense oligonucleotides” value is listed as “up to 10 fold”.
